One block for each compound: values may come before it. Calls of active or inactive are those of the source. The calls are words filed in the database; no cut-off is given here.
Columns and labels:
[1] = Inhibition of Class 1 PI3K/mTOR in human A2058 cells assessed as reduction in Akt phosphorylation at Ser473 residue incubated for 1 hr by InCell Western assay; type: cell-based; details: A2058, 1 h
cells = details: Homo sapiens, A2058, 1 h
Description: Inhibition of Class 1 PI3K/mTOR in human A2058 cells assessed as reduction in S6 phosphorylation at Ser235/236 residue incubated for 1 hr by InCell Western assay

[2] = target: T1, Phosphatidylinositol 4,5-bisphosphate 3-kinase catalytic subunit alpha isoform (Homo sapiens, UniProt P42336); assay: Displacement of Alexafluor labelled kinase tracer314 from recombinant N-terminal His6-tagged PI3K p110alpha (unknown origin) incubated for 1 hr by FRET-based LanthaScreen Eu kinase binding assay
T1 sequence (P42336 whole entry, the tested form may be a part, canonical isoform): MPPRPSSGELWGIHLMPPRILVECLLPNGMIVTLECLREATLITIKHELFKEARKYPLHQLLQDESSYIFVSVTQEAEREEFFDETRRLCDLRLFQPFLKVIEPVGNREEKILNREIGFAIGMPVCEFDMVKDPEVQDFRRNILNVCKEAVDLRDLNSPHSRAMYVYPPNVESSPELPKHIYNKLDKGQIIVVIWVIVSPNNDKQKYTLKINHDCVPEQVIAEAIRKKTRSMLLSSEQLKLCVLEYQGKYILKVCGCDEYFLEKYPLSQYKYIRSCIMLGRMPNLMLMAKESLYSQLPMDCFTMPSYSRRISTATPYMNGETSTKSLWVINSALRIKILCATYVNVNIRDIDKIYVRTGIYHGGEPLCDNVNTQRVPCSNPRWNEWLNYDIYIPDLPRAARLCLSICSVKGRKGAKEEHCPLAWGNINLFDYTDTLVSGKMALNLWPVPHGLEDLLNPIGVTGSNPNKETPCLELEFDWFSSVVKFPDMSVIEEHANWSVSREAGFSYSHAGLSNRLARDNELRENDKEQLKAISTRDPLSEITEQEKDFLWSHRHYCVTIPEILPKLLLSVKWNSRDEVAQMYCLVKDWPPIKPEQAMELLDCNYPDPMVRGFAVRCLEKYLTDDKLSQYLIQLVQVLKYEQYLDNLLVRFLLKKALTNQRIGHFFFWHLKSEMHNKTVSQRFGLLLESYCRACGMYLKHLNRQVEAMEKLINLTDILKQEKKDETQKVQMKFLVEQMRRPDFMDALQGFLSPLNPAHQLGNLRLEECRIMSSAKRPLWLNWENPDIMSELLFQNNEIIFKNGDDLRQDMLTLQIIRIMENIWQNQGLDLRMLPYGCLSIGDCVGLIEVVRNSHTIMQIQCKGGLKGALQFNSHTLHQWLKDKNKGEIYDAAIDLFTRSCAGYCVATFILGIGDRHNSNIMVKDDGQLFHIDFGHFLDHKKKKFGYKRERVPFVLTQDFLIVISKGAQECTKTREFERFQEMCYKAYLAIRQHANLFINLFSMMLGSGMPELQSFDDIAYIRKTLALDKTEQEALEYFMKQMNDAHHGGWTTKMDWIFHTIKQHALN

[3] = target: Serine/threonine-protein kinase mTOR (Homo sapiens, UniProt P42345); assay: Displacement of Alexafluor labelled kinase tracer314 from recombinant human C-terminal GST-tagged mTOR (1360 to 2549 amino acids) expressed in insect cells incubated for 1 hr by FRET-based LanthaScreen Eu kinase binding assay
[4] = Intrinsic clearance in human hepatocytes assessed per 10^6 cells; type: ADME, cell-based, Hepatocyte; details: read-out: CLH
[5] = Intrinsic clearance in rat hepatocytes assessed per 10^6 cells; type: ADME, cell-based, Hepatocyte; details: read-out: CLH
[6] = Intrinsic clearance in mouse hepatocytes assessed per 10^6 cells; type: ADME, cell-based, Hepatocyte; details: read-out: CLH
[7] = Half-life in rat hepatocytes; type: ADME, cell-based, Hepatocyte
[8] = Intrinsic clearance in dog hepatocytes assessed per 10^6 cells; type: ADME, cell-based, Canis lupus familiaris, Hepatocyte; details: read-out: CLH
[9] = Half-life in mouse hepatocytes; type: ADME, cell-based, Hepatocyte
[10] = Half-life clearance in human hepatocytes; type: ADME, cell-based, Hepatocyte
[11] = Half-life in dog hepatocytes; type: ADME, cell-based, Canis lupus familiaris, Hepatocyte
[12] = Cmax in C57BL/6J mouse plasma at 50 mg/kg, po administered as single dose after 30 mins by LC-MS analysis; type: ADME, organism-based; design: dose 50 mg/kg, route oral
[13] = Toxicity in po dosed male Wistar rat; type: organism-based; details: in vivo
[14] = target: PI3-kinase p110-alpha/p85-alpha (Homo sapiens) (UniProt P27986+P42336); assay: Inhibition of Wortmannin covalent binding to N-terminal His-tagged recombinant human PI3K p110alpha/p85alpha Lys802 expressed in baculovirus expression system preincubated for 1 hr followed by Wortmannin addition and measured after 20 mins by SDS-PAGE based immunoblot assay
A2058 [15] = assay: Inhibition of Class 1 PI3K/mTOR in human A2058 cells assessed as reduction in GSK3 phosphorylation incubated for 1 hr by InCell Western assay; type: cell-based
A2058 [16] = assay: Inhibition of Class 1 PI3K/mTOR in human A2058 cells assessed as reduction in p70S6K phosphorylation incubated for 1 hr by InCell Western assay; type: cell-based
[17] = AUClast at steady state in female Beagle dog at 3 mg/kg/day, po after 4 weeks; type: ADME, organism-based, Canis lupus familiaris; details: in vivo
A2058 [18] = assay: Antiproliferative activity against human A2058 cells at 5 to 0.02 uM after 72 hrs by […] staining based assay; type: functional, cell-based
[19] = Cmax in C57BL/6J mouse thigh muscle at 50 mg/kg, po administered as single dose after 30 mins by LC-MS analysis; type: ADME, organism-based; design: dose 50 mg/kg, route oral
[20] = AUC (0 to 8 hrs) in C57BL/6J mouse plasma at 50 mg/kg, po administered as single dose by LC-MS analysis; type: ADME, organism-based; design: dose 50 mg/kg, time < 8 hr, route oral
[21] = AUC (0 to 8 hrs) in C57BL/6J mouse thigh muscle at 50 mg/kg, po administered as single dose by LC-MS analysis; type: ADME, organism-based; design: dose 50 mg/kg, time < 8 hr, route oral
[22] = AUClast at steady state in male Beagle dog at 1 mg/kg/day, po after 4 weeks; type: ADME, organism-based, Canis lupus familiaris; details: in vivo
[23] = Toxicity in po dosed female Wistar rat; type: organism-based; details: in vivo
[24] = target: T1, Phosphatidylinositol 4,5-bisphosphate 3-kinase catalytic subunit alpha isoform; assay: Binding affinity to wild-type human partial length PIK3CA (R108 to N1068 residues) expressed in mammalian expression system by quantitative PCR based KINOMEscan assay
A2058 [25] = assay: Inhibition of Class 1 PI3K/mTOR in human A2058 cells assessed as reduction in Akt phosphorylation incubated for 1 hr by InCell Western assay; type: cell-based
SK-OV-3 = assay: Antiproliferative activity against human SKOV3 cells at 5 to 0.02 uM after 72 hrs by […] staining based assay; type: functional, cell-based
[26] = Terminal half-life in C57BL/6J mouse brain at 50 mg/kg, po administered as single dose by LC-MS analysis; type: ADME, organism-based; details: read-out: beta t1/2 (converted)
[27] = Toxicity in po dosed male Beagle dog; type: organism-based, Canis lupus familiaris; details: in vivo
[28] = Fraction unbound in rat brain; type: ADME, tissue-based
[29] = Tmax in C57BL/6J mouse brain at 50 mg/kg, po administered as single dose by LC-MS analysis; type: ADME, organism-based
OVCAR-3 = assay: Antitumor activity against human OVCAR3 cells xenografted in BALB/c nude mouse assessed as reduction in tumor growth at 25 mg/kg, po administered once daily starting from 17 days post inoculation and measured thrice per week; type: functional, organism-based
[30] = Tmax in C57BL/6J mouse plasma at 50 mg/kg, po administered as single dose by LC-MS analysis; type: ADME, organism-based
Mus musculus [31] = assay: In vivo inhibition of Class 1 PI3K/mTOR in C57BL/6J mouse assessed as increase in plasma glucose level at 50 mg/kg, po administered as single dose after 2 hr by colorimetry based immunoassay; type: functional, organism-based
[32] = Toxicity in po dosed female Beagle dog; type: organism-based, Canis lupus familiaris; details: in vivo
[33] = AUC (0 to 8 hrs) at steady state in female Wistar rat at 0.5 mg/kg, po after 4 weeks; type: ADME, organism-based; design: time < 8 hr, dose 0.5 mg/kg, route oral; details: in vivo
[34] = Terminal half-life in C57BL/6J mouse plasma at 50 mg/kg, po administered as single dose by LC-MS analysis; type: ADME, organism-based; details: read-out: beta t1/2 (converted)
[35] = Toxicity in BALB/c nude mouse assessed as effect on body weight at 25 mg/kg, po administered once daily starting from 17 days post inoculation and measured after 20 to 40 days post inoculation; type: organism-based; details: in vivo
Homo sapiens = organism: Homo sapiens; assay: Inhibition of Class 1 PI3K/mTOR in human SKOV3 cells assessed as reduction in Akt phosphorylation at Ser473 residue incubated for 1 hr by InCell Western assay; type: cell-based
[36] = AUC (0 to 8 hrs) at steady state in male Wistar rat at 1 mg/kg/day, po after 4 weeks; type: ADME, organism-based; design: dose 1 mg/kg/day, time < 8 hr, route oral; details: in vivo
[37] = Tmax in C57BL/6J mouse thigh muscle at 50 mg/kg, po administered as single dose by LC-MS analysis; type: ADME, organism-based
[38] = AUC (0 to 8 hrs) in C57BL/6J mouse brain at 50 mg/kg, po administered as single dose by LC-MS analysis; type: ADME, organism-based; design: dose 50 mg/kg, time < 8 hr, route oral
[39] = Metabolic stability in mouse liver microsomes assessed as compound remaining after 30 mins; type: ADME, Microsome; details: read-out: Stability
[40] = Metabolic stability in human liver microsomes assessed as compound remaining after 30 mins; type: ADME, Microsome; details: read-out: Stability
[41] = Clearance in C57BL/6J mouse plasma at 50 mg/kg, po administered as single dose by LC-MS analysis; type: ADME, organism-based
[42] = Metabolic stability in rat liver microsomes assessed as compound remaining after 30 mins; type: ADME, Microsome; details: read-out: Stability
Mus musculus [43] = assay: In vivo inhibition of Class 1 PI3K/mTOR in C57BL/6J mouse assessed as increase in plasma glucose level at 50 mg/kg, po administered as single dose after 10 mins to 1 hr by colorimetric assay; type: functional, organism-based
[44] = target: Phosphatidylinositol 4,5-bisphosphate 3-kinase catalytic subunit gamma isoform (Homo sapiens, UniProt P48736); assay: Binding affinity to wild-type human partial length PIK3CG (S144 to A1102 residues) expressed in mammalian expression system by quantitative PCR based KINOMEscan assay
Phosphatidylinositol 4,5-bisphosphate 3-kinase catalytic subunit gamma isoform, sequence (P48736 whole entry, the tested form may be a part, canonical isoform): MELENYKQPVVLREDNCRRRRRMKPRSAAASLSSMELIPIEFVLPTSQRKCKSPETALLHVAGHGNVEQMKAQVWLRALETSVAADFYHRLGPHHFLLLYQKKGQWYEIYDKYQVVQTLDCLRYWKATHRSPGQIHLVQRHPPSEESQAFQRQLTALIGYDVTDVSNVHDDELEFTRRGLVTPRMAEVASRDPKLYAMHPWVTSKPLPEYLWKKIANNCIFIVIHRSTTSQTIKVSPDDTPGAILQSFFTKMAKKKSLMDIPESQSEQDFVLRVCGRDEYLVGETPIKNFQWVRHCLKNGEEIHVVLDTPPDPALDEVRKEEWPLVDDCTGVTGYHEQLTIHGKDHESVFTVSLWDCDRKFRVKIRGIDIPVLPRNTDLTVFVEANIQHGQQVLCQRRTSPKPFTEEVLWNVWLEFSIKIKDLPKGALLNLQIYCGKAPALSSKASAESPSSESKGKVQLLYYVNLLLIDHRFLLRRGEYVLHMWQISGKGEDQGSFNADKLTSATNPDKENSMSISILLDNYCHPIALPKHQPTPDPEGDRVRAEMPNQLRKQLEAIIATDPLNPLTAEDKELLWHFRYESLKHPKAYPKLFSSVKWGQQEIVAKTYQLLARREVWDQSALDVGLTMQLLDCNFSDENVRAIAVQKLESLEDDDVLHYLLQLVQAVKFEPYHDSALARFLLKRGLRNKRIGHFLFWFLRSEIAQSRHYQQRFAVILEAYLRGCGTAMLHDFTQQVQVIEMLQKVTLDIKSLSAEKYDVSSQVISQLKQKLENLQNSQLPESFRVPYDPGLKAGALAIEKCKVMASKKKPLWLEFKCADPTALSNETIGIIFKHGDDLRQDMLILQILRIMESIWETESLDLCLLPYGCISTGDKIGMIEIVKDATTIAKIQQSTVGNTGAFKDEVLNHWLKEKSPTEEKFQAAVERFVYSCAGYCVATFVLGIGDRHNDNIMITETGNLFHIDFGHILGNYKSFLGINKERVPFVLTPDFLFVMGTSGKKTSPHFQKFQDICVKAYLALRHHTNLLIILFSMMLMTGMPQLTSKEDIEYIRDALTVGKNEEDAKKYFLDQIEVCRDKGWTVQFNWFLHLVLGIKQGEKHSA

[45] = Cmax in C57BL/6J mouse brain at 50 mg/kg, po administered as single dose after 30 mins by LC-MS analysis; type: ADME, organism-based; design: dose 50 mg/kg, route oral
[46] = Metabolic stability in dog liver microsomes assessed as compound remaining after 30 mins; type: ADME, Canis lupus familiaris, Microsome; details: read-out: Stability
[47] = Terminal half-life in C57BL/6J mouse thigh muscle at 50 mg/kg, po administered as single dose by LC-MS analysis; type: ADME, organism-based; details: read-out: beta t1/2 (converted)

IC50 [1]: 248 nM | IC50 (cells): 283 nM | Ki [2]: 6.8 nM | Ki [3]: 137 nM
Compound: C[C@H]1COCCN1c1nc(-c2cnc(N)cc2C(F)(F)F)nc(N2CCOC[C@@H]2C)n1

hepatocyte CLint [4]: 65.5 µL/min/1e6 cells | hepatocyte CLint [5]: 124 µL/min/1e6 cells | hepatocyte CLint [6]: 116 µL/min/1e6 cells | half-life [7]: 0.185 h | hepatocyte CLint [8]: 138 µL/min/1e6 cells | half-life [9]: 0.198 h | half-life [10]: 0.352 h | half-life [11]: 0.17 h
Compound: O=c1ccc2ccc(O)cc2o1 [UMBELLIFERONE]

IC50 [1]: 32.4 nM | IC50 (cells): 63.9 nM | Ki [3]: 10.6 nM
Compound: C[C@H]1COCCN1c1nc(-c2cnc(N)nc2C(F)F)nc(N2CCOCC2)n1

IC50 [1]: 91 nM | IC50 (cells): 164 nM | Ki [2]: 4 nM | Ki [3]: 37.9 nM
Compound: C[C@H]1COCCN1c1nc(-c2cnc(N)nc2C(F)(F)F)nc(N2CCOCC2)n1

IC50 [1]: 947 nM | IC50 (cells): 691 nM | Ki [2]: 731 nM | Ki [3]: 177 nM
Compound: Nc1cc(C(F)(F)F)c(-c2nc(N3CC4CCC(C3)O4)nc(N3CC4CCC(C3)O4)n2)cn1

IC50 [1]: 567 nM | IC50 (cells): 437 nM | Ki [2]: 31.4 nM | Ki [3]: 39.6 nM
Compound: C[C@@H]1COC[C@H](C)N1c1nc(-c2cnc(N)cc2C(F)(F)F)nc(N2[C@H](C)COC[C@@H]2C)n1

Cmax [12]: 7800 ng/mL | inhibition [14]: Active | IC50 [1]: 62.2 nM | AUC(0-t) at 672 h [17]: 1070 ng·h/mL | hepatocyte CLint [4]: 6 µL/min/1e6 cells | Cmax [19]: 11900 ng/mL | AUC(0-t) at 8 h [20]: 27900 ng·h/mL | AUC(0-t) at 8 h [21]: 39200 ng·h/mL | AUC(0-t) at 672 h [22]: 127 ng·h/mL | Kd [24]: 0.84 nM | hepatocyte CLint [5]: 7 µL/min/1e6 cells | half-life [26]: 4.8 h | fraction unbound [28]: 0.08 | Tmax [29]: 0.5 h | hepatocyte CLint [6]: 11 µL/min/1e6 cells | Tmax [30]: 0.5 h | IC50 (cells): 61.9 nM | AUC at 8 h [33]: 599 ng·h/mL | half-life [34]: 4.7 h | Ki [2]: 11.1 nM | AUC at 8 h [36]: 335 ng·h/mL | half-life [7]: 3.2 h | Tmax [37]: 0.5 h | AUC(0-t) at 8 h [38]: 46500 ng·h/mL | remaining at 0.5 h [39]: 73.2% | hepatocyte CLint [8]: 10 µL/min/1e6 cells | remaining at 0.5 h [40]: 81.5% | half-life [9]: 2.37 h | CL/F [41]: 20.9 mL/min/kg | half-life [10]: 4.17 h | remaining at 0.5 h [42]: 106% | half-life [11]: 2.37 h | Kd [44]: 10 nM | Cmax [45]: 12600 ng/mL | remaining at 0.5 h [46]: 97.4% | half-life [47]: 3.5 h | Ki [3]: 7.4 nM
Compound: C[C@H]1COCCN1c1nc(-c2cnc(N)cc2C(F)F)nc(N2CCOCC2)n1
NOAEL [13]: 1 mg/kg/day | inhibition (A2058 [15]): Active | inhibition (A2058 [16]): Active | Activity (A2058 [18]): Active | NOAEL [23]: 0.5 mg/kg | inhibition (A2058 [25]): Active | Activity (SK-OV-3): Active | NOAEL [27]: 1 mg/kg/day | Activity (OVCAR-3): Active | inhibition (Mus musculus [31]): Active | NOAEL [32]: 3 mg/kg/day | Activity [35]: Non-Toxic | inhibition (Homo sapiens): Active | inhibition (Mus musculus [43]): Active

IC50 [1]: 99.6 nM | IC50 (cells): 387 nM | Ki [2]: 2 nM | Ki [3]: 192 nM
Compound: C[C@H]1COCCN1c1cc(-c2cnc(N)nc2C(F)F)nc(N2CCOCC2)n1

IC50 [1]: 420 nM | IC50 (cells): 156 nM | Ki [2]: 19.9 nM | Ki [3]: 43.1 nM
Compound: Nc1cc(C(F)(F)F)c(-c2nc(N3CCOCC3)nc(N3C4CCC3COC4)n2)cn1

IC50 [1]: 77.3 nM | IC50 (cells): 146 nM | Ki [2]: 4.1 nM | Ki [3]: 15.3 nM
Compound: C[C@H]1COCCN1c1nc(-c2cnc(N)nc2C(F)F)cc(N2CCOCC2)n1

IC50 [1]: 196 nM | IC50 (cells): 89.8 nM | Ki [2]: 8.3 nM | Ki [3]: 25.5 nM
Compound: C[C@H]1COCCN1c1nc(-c2cnc(N)cc2C(F)(F)F)nc(N2CCOCC2)n1

IC50 [1]: 373 nM | IC50 (cells): 410 nM | Ki [2]: 53.7 nM | Ki [3]: 109 nM
Compound: C[C@@H]1COCCN1c1nc(-c2cnc(N)cc2C(F)(F)F)nc(N2CCOCC2)n1

From ChEMBL document CHEMBL4359834 (J Med Chem, 2019)
